# Experiments:
# [1] = tested on: Detroit 562 cells infected with S. pneumoniae TIGR4; experiment: Cell-based infection model, bacterial CFU; design: species or system Streptococcus pneumoniae; conditions: MOI 5, 3 h at 37°C, n = 3
# Protocol: Detroit 562 human pharyngeal epithelial cells were infected with S. pneumoniae TIGR4 at a multiplicity of infection (MOI) of 5. Cells were treated with 20 μM (RXR)4XB-anti-gyrA PNA or scrambled control PNA, respectively. As a positive control, 1 μg levofloxacin, corresponding to 3× MIC, was added. Following incubation for 3 h at 37°C, bacterial CFU counts were determined for CPP-antisense PNA-treated samples and compared to those in nontreated samples and in samples containing scrambled control PNAs (Fig. 4A). Treatment with (RXR)4XB-anti-gyrA caused a log CFU reduction of 1. Addition of levofloxacin led to a log CFU reduction of 2.
# The human pharynx carcinoma epithelial cell line Detroit 562 (ATCC CCL138) was cultivated in Dulbecco’s modified Eagle medium (DMEM)/F12 (1:1) (Thermo Fisher Scientific, Schwerte, Germany) supplemented with 10% fetal bovine serum at 37°C and 5% CO2. Confluent Detroit 562 cells were infected with S. pneumoniae TIGR4 at an MOI of 5. Cultures were treated with 20 μM CPP-PNAs or 1 μg levofloxacin, respectively, and incubated for 3 h at 37°C, 5% CO2. After incubation, the supernatant was collected. Adherent cells were detached with Accutase solution (Merck KGaA, Darmstadt, Germany), collected by centrifugation for 10 min at 4,000 × g, and combined with the supernatant. Cells were pelleted by centrifugation, washed twice with PBS, and suspended in PBS. CFU/well was determined following serial dilution and plating on Todd Hewitt Broth, supplemented with Yeast, (THY) agar plates.
# [2] = tested on: G. mellonella larvae infected with S. pneumoniae TIGR4; experiment: G. mellonella infection model, larval survival; assay type: in vivo, Galleria mellonella; conditions: 7 days; for Survival of infected larvae: 30 min postinfection, mock 19%, n = 40
# Protocol: Antimicrobial efficiency of CPP-antisense PNA conjugates was evaluated in vivo employing a G. mellonella infection and treatment model ([22], [28]). Larvae were infected with S. pneumoniae strain TIGR4 and subsequently treated with 10 nmol CPP-anti-gyrA PNAs. Treatment with levofloxacin served as a positive control. Larval survival was observed over 7 days.
# Larvae of the greater wax moth (G. mellonella) were obtained from Bugs-International GmbH (Irsingen/Unterfeld, Germany). For infection experiments, S. pneumoniae TIGR4 was grown for 7 h in BHI, washed twice in a 0.9% NaCl solution, and suspended in 0.9% NaCl to a final concentration of approximately 1 × 10^8 CFU/mL. Larvae weighing 150 to 200 mg were infected with 1 × 10^6 to 3 × 10^6 CFU/larva. Bacteria were injected into the hemocoel of the larvae between the last two pairs of prolegs using a microapplicator (World Precision Instruments, LLC, Sarasota, FL) and a fine-dosage syringe (Omnican-F, 0.01 to 1 mL, 0.30 × 12 mm; B. Braun AG, Melsungen, Germany). As mock control, 0.9% NaCl (PNA experiment) or 0.9% NaCl/3% DMSO (levofloxacin experiment) was injected. For CPP-PNA treatment, larvae were injected 30 min postinfection with 10 nmol CPP-PNA/larva. For levofloxacin treatment, larvae were injected 30 min postinfection with 1 or 10 μg levofloxacin/larva. Larvae were incubated for 7 days, and survival was monitored daily ([22]).
# [3] = tested on: G. mellonella larvae infected with S. pneumoniae TIGR4; experiment: G. mellonella infection model, bacterial load; assay type: in vivo, Galleria mellonella; conditions: 24 h postinfection
# Protocol: To establish the antibacterial effect of PNAs in the invertebrate infection model, we assessed the bacterial loads in infected larvae (Fig. 6). Larvae were infected and subsequently treated with NaCl (mock), 10 nmol CPP-PNA, or levofloxacin (positive control), respectively. From each group, four larvae were homogenized at 24 h postinfection. CFU/larva were determined following serial dilutions of the suspension and plating on selective medium. Treatment with (RXR)4XB-anti-gyrA caused a log CFU reduction of 1 compared to that in the mock-treated larvae. The addition of 1 or 10 μg levofloxacin led to a log CFU reduction of 2 or 6, respectively.
# For determination of bacterial load, larvae were infected and subsequently treated with NaCl (mock), CPP-PNAs, or levofloxacin (positive control). At 24 h after infection, larvae were homogenized. Following serial dilution, the suspension was plated on selective medium (BD Columbia CNA Agar with 5% sheep blood; Becton Dickinson GmbH, Heidelberg, Germany). Agar plates were incubated overnight at 37°C, 5% CO2. CFU/larva was determined by visual inspection. Colony identity was verified on a random basis by colony PCR using ply-specific primers.
# S. pneumoniae TIGR4 [4] = experiment: In vitro time-killing assay (killing kinetics); assay type: cell-based, Streptococcus pneumoniae; conditions: 10 μM, samples every 2 h up to 12 h, n = 3
# Protocol: The antimicrobial activity kinetics of TAT- and (RXR)4XB-conjugated anti-gyrA PNA constructs in S. pneumoniae TIGR4 were studied using an in vitro time-killing assay. Bacteria were treated with 10 μM CPP-antisense PNAs or scrambled control PNAs (Fig. 2). Samples were collected every 2 h following antisense treatment. CFU/mL was determined by plating of serial dilutions and plotted over time. […] In contrast, (RXR)4XB-conjugated anti-gyrA PNA treatment led to a continuous reduction in S. pneumoniae CFU until complete eradication after 12 h.
# For monitoring of killing kinetics, samples were collected 2 to 12 h post-treatment. Viable cell counts were determined by plating appropriate dilutions on BHI agar plates. CFU were determined by visual inspection following overnight incubation at 37°C under a 5% CO2 atmosphere. At time point 0, the viable cell count corresponded to 1 × 10^5 to 3 × 10^5 CFU/mL.
# S. pneumoniae TIGR4 [5] = experiment: Bacterial killing assay (CFU/mL reduction after 6 h); assay type: cell-based, Streptococcus pneumoniae; conditions: TIGR4
# Protocol: The impact of different CPPs on the efficacy of antisense PNAs targeting gyrA and rpoB in S. pneumoniae was tested using an in vitro killing assay ([25]). S. pneumoniae strains were incubated for 6 h with CPP-antisense PNA conjugates. We determined the reduction of bacterial CFU/mL caused by different CPP-coupled antisense PNA constructs compared to an untreated control. Three different CPPs were tested: HIV-1 TAT (TAT), oligolysin (K8), and (RXR)4XB (Table 1). Concentration-dependent bactericidal activity was investigated by treatment of S. pneumoniae TIGR4 in a CPP-antisense PNA conjugate concentration range of 2.5 to 20 μM (Fig. 1).
# After culturing S. pneumoniae strains in BHI, D39 and 19F were diluted to approximately 10^5 CFU/mL in phosphate-buffered saline (PBS):BHI (93%:7%), while TIGR4 was diluted to approximately 10^5 CFU/mL in PBS:BHI (96%:4%). Next, 450-μL volumes of the respective bacterial suspensions, containing approximately 0.5× 10^5 CFU, were transferred to 2-mL reaction tubes. A 50-μL volume of PNA solution was added to a final PNA concentration of 1 to 20 μM or as indicated. Fifty μL H2O served as a mock control. The reaction tubes were incubated for 6 h at 37°C and 7 rpm (Rotor SB3; Stuart, Staffordshire, United Kingdom). The concentration of CPP-PNA that reduced CFU/mL by 50% after 6 h of incubation compared to an untreated control (IC50) was calculated by nonlinear regression analysis using GraphPad Prism software (GraphPad Software, San Diego, CA).
compound,measurement,setting,value
"C[C@H]1COc2c(N3CCN(C)CC3)c(F)cc3c(=O)c(C(=O)O)cn1c23 [levofloxacin, reference compound]",log CFU reduction in infected Detroit 562 cells,"[1]; 1 μg levofloxacin, corresponding to 3× MIC",2
same,Survival of infected larvae,[2]; 1 μg levofloxacin/larva (approx. 2.5× MIC),40%
same,Increase of survival rate,[2]; 1 μg levofloxacin/larva,21%
same,Survival of infected larvae,[2]; 10 μg levofloxacin/larva (approx. 25× MIC),74%
same,log CFU reduction of bacterial load compared to mock-treated larvae,[3]; 1 μg levofloxacin,2
same,log CFU reduction of bacterial load compared to mock-treated larvae,[3]; 10 μg levofloxacin,6
"RXRRXRRXRRXRXB-eg-aatgattact [(RXR)4XB-anti-gyrA scPNA, (RXR)4XB-coupled scrambled control PNA for anti-gyrA]",Bacterial counts over time (in words),S. pneumoniae TIGR4 [4],did not cause reduced bacterial counts
same,log CFU reduction in infected Detroit 562 cells,[1]; 20 μM CPP-PNA,No significant changes in bacterial CFU
same,log CFU reduction of bacterial load compared to mock-treated larvae,"[3]; 10 nmol CPP-PNA/larva, n = 4 larvae per group, three experiments",no significant changes in the bacterial CFU
"KKKKKKKK-eg-tgcattaata [K8-anti-gyrA PNA, Oligolysin (K8) coupled to antisense PNA against gyrA]",Reduction of bacterial CFU/mL compared to untreated control (in words),"S. pneumoniae TIGR4 [5]; 6 h, concentration range 2.5 to 20 μM, n = 5",no reduction of CFU/mL
"TAT: unconjugated cell-penetrating peptide HIV-1 TAT (48–57) (GRKKRRQRRR; UniProt P04608 48-57, looked up, fragment) [reference compound]",Antibacterial effects of unconjugated CPP (in words),S. pneumoniae TIGR4 [5]; Fig. S3,higher than those of the conjugated peptides

# — publication PMC9784828, “Antimicrobial Activity of Peptide-Coupled Antisense Peptide Nucleic Acids in Streptococcus pneumoniae” (Microbiology Spectrum, 2022)
